{"source": "ChEMBL document CHEMBL1177735", "about": "“Amaryllidaceae alkaloids belonging to different structural subgroups display activity against apoptosis-resistant cancer cells” (J Nat Prod, 2010)", "key": {"[1]": {"system": "A549", "experiment": "Cytotoxicity against human A549 cells after 72 hrs by MTT colorimetric assay", "assay_type": "functional, cell-based", "conditions": "A549, 72 h"}, "[2]": {"experiment": "Cytotoxicity against human Hs683 cells after 72 hrs by MTT colorimetric assay", "assay_type": "functional, cell-based", "conditions": "Hs 683, 72 h"}, "[3]": {"system": "SK-MEL", "experiment": "Cytotoxicity against human SK-MEL cells after 72 hrs by MTT colorimetric assay", "assay_type": "functional, cell-based"}, "[4]": {"experiment": "Cytotoxicity against human U373 cells after 72 hrs by MTT colorimetric assay", "assay_type": "functional, cell-based, U-373MG ATCC", "conditions": "U373 MG"}, "[5]": {"system": "B16-F10", "experiment": "Cytotoxicity against mouse B16F10 cells after 72 hrs by MTT colorimetric assay", "assay_type": "functional, cell-based", "conditions": "B16-F10, 72 h"}, "[6]": {"experiment": "Cytotoxicity against human OE21 cells after 72 hrs by MTT colorimetric assay", "assay_type": "functional, cell-based", "conditions": "OE21, 72 h"}}, "note": "pIC50: −log10 of the molar value. Counter-ions that a name gives are not always drawn."}
{"smiles": "CO[C@@H]1C=C[C@@]23c4cc5c(cc4CN(C[C@@H]2O)[C@H]3C1)OCO5", "note": "[(+)-HAEMANTHAMINE]", "values": [{"measurement": "pIC50", "setting": "[1]", "result": 5.35}, {"measurement": "pIC50", "setting": "[2]", "result": 5.15}, {"measurement": "pIC50", "setting": "[3]", "result": 5.07}, {"measurement": "pIC50", "setting": "[4]", "result": 5.11}, {"measurement": "pIC50", "setting": "[5]", "result": 5.17}, {"measurement": "pIC50", "setting": "[6]", "result": 5.17}]}
{"smiles": "O[C@H]1[C@H]2c3cc4c(cc3CN3CCC(=C[C@@H]1O)[C@H]23)OCO4", "note": "[LYCORINE]", "values": [{"measurement": "pIC50", "setting": "[1]", "result": 5.38}, {"measurement": "pIC50", "setting": "[2]", "result": 5.16}, {"measurement": "pIC50", "setting": "[3]", "result": 5.08}, {"measurement": "pIC50", "setting": "[4]", "result": 5.12}, {"measurement": "pIC50", "setting": "[6]", "result": 5.35}]}
{"smiles": "CN1CC[C@@H]2C[C@H](O)[C@@H]3OC(=O)c4cc5c(cc4[C@H]3[C@@H]21)OCO5", "note": "[CLIVONINE HYDROCHLORIDE]", "values": [{"measurement": "pIC50", "setting": "[1]", "result": "< 5.00"}, {"measurement": "pIC50", "setting": "[2]", "result": "< 5.00"}, {"measurement": "pIC50", "setting": "[3]", "result": "< 5.00"}, {"measurement": "pIC50", "setting": "[4]", "result": "< 5.00"}, {"measurement": "pIC50", "setting": "[5]", "result": "< 5.00"}, {"measurement": "pIC50", "setting": "[6]", "result": "< 5.00"}]}
{"smiles": "COc1cc2c(cc1OC)[C@@H]1[C@H](O)[C@@H](OC)C=C3CCN(C2)[C@H]31", "note": "[GALANTHINE]", "values": [{"measurement": "pIC50", "setting": "[1]", "result": "< 5.00"}, {"measurement": "pIC50", "setting": "[2]", "result": "< 5.00"}, {"measurement": "pIC50", "setting": "[3]", "result": "< 5.00"}, {"measurement": "pIC50", "setting": "[4]", "result": "< 5.00"}, {"measurement": "pIC50", "setting": "[5]", "result": "< 5.00"}, {"measurement": "pIC50", "setting": "[6]", "result": "< 5.00"}]}
{"smiles": "COc1c2c(cc3c1OCO3)[C@@]13CCN(C2)[C@@H]1CC=C[C@H]3O", "note": "[BUPHANAMINE]", "values": [{"measurement": "pIC50", "setting": "[1]", "result": "< 5.00"}, {"measurement": "pIC50", "setting": "[2]", "result": "< 5.00"}, {"measurement": "pIC50", "setting": "[3]", "result": "< 5.00"}, {"measurement": "pIC50", "setting": "[4]", "result": "< 5.00"}, {"measurement": "pIC50", "setting": "[5]", "result": "< 5.00"}, {"measurement": "pIC50", "setting": "[6]", "result": "< 5.00"}]}
{"smiles": "COC1C=C[C@@]23CCN(Cc4cc5c(cc42)OCO5)[C@@H]3C1", "note": "(stereo partly specified)", "values": [{"measurement": "pIC50", "setting": "[1]", "result": "< 5.00"}, {"measurement": "pIC50", "setting": "[2]", "result": "< 5.00"}, {"measurement": "pIC50", "setting": "[3]", "result": "< 5.00"}, {"measurement": "pIC50", "setting": "[4]", "result": "< 5.00"}, {"measurement": "pIC50", "setting": "[5]", "result": "< 5.00"}, {"measurement": "pIC50", "setting": "[6]", "result": 4.01}]}
{"smiles": "COc1c2c(cc3c1OCO3)[C@]13C=C[C@H](OC)C[C@H]1N(C2)C[C@@H]3O", "note": "[AMBELLINE]", "values": [{"measurement": "pIC50", "setting": "[1]", "result": "< 5.00"}, {"measurement": "pIC50", "setting": "[2]", "result": "< 5.00"}, {"measurement": "pIC50", "setting": "[3]", "result": "< 5.00"}, {"measurement": "pIC50", "setting": "[4]", "result": "< 5.00"}, {"measurement": "pIC50", "setting": "[5]", "result": "< 5.00"}, {"measurement": "pIC50", "setting": "[6]", "result": 4.07}]}
{"smiles": "CO[C@@H]1C=C[C@@]23c4cc5c(cc4[C@@H](O)N(C[C@H]2O)[C@H]3C1)OCO5", "note": "[HAEMANTHIDINE]", "values": [{"measurement": "pIC50", "setting": "[1]", "result": 5.40}, {"measurement": "pIC50", "setting": "[2]", "result": 5.37}, {"measurement": "pIC50", "setting": "[3]", "result": 5.38}, {"measurement": "pIC50", "setting": "[4]", "result": 5.42}, {"measurement": "pIC50", "setting": "[5]", "result": 5.51}, {"measurement": "pIC50", "setting": "[6]", "result": 5.43}]}
{"smiles": "O[C@@H]1CC=C2CCN3Cc4cc5c(cc4[C@H]1[C@@H]23)OCO5", "note": "[CARANINE]", "values": [{"measurement": "pIC50", "setting": "[1]", "result": "< 5.00"}, {"measurement": "pIC50", "setting": "[2]", "result": "< 5.00"}, {"measurement": "pIC50", "setting": "[3]", "result": "< 5.00"}, {"measurement": "pIC50", "setting": "[4]", "result": "< 5.00"}, {"measurement": "pIC50", "setting": "[5]", "result": "< 5.00"}, {"measurement": "pIC50", "setting": "[6]", "result": "< 5.00"}]}
{"smiles": "CC(O)CC(=O)O[C@H]1C[C@H]2CCN(C)[C@H]2[C@@H]2c3cc4c(cc3C(=O)O[C@H]21)OCO4", "note": "(stereo partly specified) [NOBILISITINE B]", "values": [{"measurement": "pIC50", "setting": "[1]", "result": "< 5.00"}, {"measurement": "pIC50", "setting": "[2]", "result": "< 5.00"}, {"measurement": "pIC50", "setting": "[3]", "result": "< 5.00"}, {"measurement": "pIC50", "setting": "[4]", "result": "< 5.00"}, {"measurement": "pIC50", "setting": "[5]", "result": "< 5.00"}, {"measurement": "pIC50", "setting": "[6]", "result": "< 5.00"}]}
{"smiles": "[O-]c1cc2c3c(c1)c1cc4c(cc1c[n+]3CC2)OCO4", "note": "[UNGEREMINE]", "values": [{"measurement": "pIC50", "setting": "[1]", "result": "< 5.00"}, {"measurement": "pIC50", "setting": "[2]", "result": "< 5.00"}, {"measurement": "pIC50", "setting": "[3]", "result": "< 5.00"}, {"measurement": "pIC50", "setting": "[4]", "result": 4.08}, {"measurement": "pIC50", "setting": "[5]", "result": "< 5.00"}, {"measurement": "pIC50", "setting": "[6]", "result": "< 5.00"}]}
{"smiles": "CO[C@@H]1C=C[C@@]23c4cc5c(cc4CO[C@]2(O)CN(C)[C@H]3C1)OCO5", "note": "[TAZETTINE]", "values": [{"measurement": "pIC50", "setting": "[1]", "result": "< 5.00"}, {"measurement": "pIC50", "setting": "[2]", "result": "< 5.00"}, {"measurement": "pIC50", "setting": "[3]", "result": "< 5.00"}, {"measurement": "pIC50", "setting": "[4]", "result": "< 5.00"}, {"measurement": "pIC50", "setting": "[5]", "result": "< 5.00"}, {"measurement": "pIC50", "setting": "[6]", "result": 4.11}]}
{"smiles": "COC1=C[C@@H]2CCN3Cc4cc5c(cc4[C@@H]([C@H]23)[C@@H]1O)OCO5", "note": "[AMARBELLISINE]", "values": [{"measurement": "pIC50", "setting": "[2]", "result": 5.09}, {"measurement": "pIC50", "setting": "[3]", "result": 5.08}, {"measurement": "pIC50", "setting": "[4]", "result": 5.14}, {"measurement": "pIC50", "setting": "[6]", "result": 5.17}]}
{"smiles": "COc1cc2c(cc1O)CN1CCC3=CC[C@@H](O)[C@@H]2[C@@H]31", "note": "[NORPLUVINE]", "values": [{"measurement": "pIC50", "setting": "[1]", "result": "< 5.00"}, {"measurement": "pIC50", "setting": "[2]", "result": "< 5.00"}, {"measurement": "pIC50", "setting": "[3]", "result": "< 5.00"}, {"measurement": "pIC50", "setting": "[4]", "result": "< 5.00"}, {"measurement": "pIC50", "setting": "[5]", "result": "< 5.00"}, {"measurement": "pIC50", "setting": "[6]", "result": "< 5.00"}]}
{"smiles": "COc1cc2c(cc1O)[C@@H]1[C@H](O)[C@@H](O)C=C3CCN(C2)[C@H]31", "note": "[PSEUDOLYCORINE]", "values": [{"measurement": "pIC50", "setting": "[1]", "result": 5.13}, {"measurement": "pIC50", "setting": "[2]", "result": 5.10}, {"measurement": "pIC50", "setting": "[3]", "result": "< 5.00"}, {"measurement": "pIC50", "setting": "[4]", "result": 5.11}, {"measurement": "pIC50", "setting": "[6]", "result": 5.10}]}
